# From paper PMC12040969, “Design, synthesis, in silico studies, and apoptotic antiproliferative activity of novel thiazole-2-acetamide derivatives as tubulin polymerization inhibitors” (Frontiers in Chemistry, 2025)
# How the values were obtained:
# [1] = Cell viability assay (MTT), normal cells; assay type: cell-based; conditions: human, MCF-10A normal mammary gland epithelial cells, four-day incubation
# prostatic - PC-3 = assay: Antiproliferative assay (MTT) PC-3; conditions: for IC50: read-out: Antiproliferative activity IC50 ± SEM (µM) PC-3, PC-3, MTT
# breast - MCF-7 = assay: Antiproliferative assay (MTT) MCF-7; conditions: for IC50: read-out: Antiproliferative activity IC50 ± SEM (µM) MCF-7, MCF-7, MTT
# colon - HCT-116 = assay: Antiproliferative assay (MTT) HCT-116; conditions: for IC50: read-out: Antiproliferative activity IC50 ± SEM (µM) HCT-116, HCT-116, MTT
# - MDAMB-231 = assay: Antiproliferative assay (MTT) MDAMB-231
# pancreatic - MDAMB-231 = assay: Antiproliferative assay (MTT) MDAMB-231; conditions: read-out: Antiproliferative activity IC50 ± SEM (µM) MDAMB-231; MDAMB-231, MTT
# [2] = test system: four human cancer cell lines (HCT-116, PC-3, MCF-7, MDAMB-231); assay: Antiproliferative assay, mean of four cell lines (GI50); conditions: for Reduced potency compared to doxorubicin (GI50) / Reduced potency compared to sorafenib (GI50): GI50 ratio; for IC50: Homo sapiens, read-out: GI50 (average IC50)
# tubulin = assay: Tubulin polymerization inhibition assay (Cytoskeleton kit);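 for all read-outs here: Cell-free tubulin polymerization read by fluorescent reporter enhancement over a 30 min reaction, with the compound-free kit control taken as 100% activity and inhibition relative to it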; conditions: for Tub. enzyme inhibition assay %inhibition / Tub %inh: 30 min; for Tub. enzyme inhibition assay %inhibition: codes 522-537 run; for Tub. enzyme inhibition assay K. Activity: control = 120, codes 522-537 run; for IC50: read-out: Tubulin inhibition IC50 ± SEM, triplicate for each tested concentration; for Tub %inh: YB-EGY run; for Tub K.Activity: EC = 120, YB-EGY run
smiles,measurement,setting,value
"Cc1ccc(-c2csc(NC(=O)CSc3nc(C)c(C(=O)/C=C/c4ccc(F)cc4)s3)n2)cc1 [Compound 10m, (E)-2-((5-(3-(4-fluorophenyl)acryloyl)-4-methylthiazol-2-yl)thio)-N-(4-(p-tolyl)thiazol-2-yl)acetamide]","viability at 96 h, 50 µM",[1],87%
same,Average of Relative viability of cells (%),"prostatic - PC-3; PC-3, 1.56 µM",100%
same,Average of Relative viability of cells (%),"prostatic - PC-3; PC-3, 3.125 µM",98.5%
same,Average of Relative viability of cells (%),"prostatic - PC-3; PC-3, 6.25 µM",84.1%
same,Average of Relative viability of cells (%),"prostatic - PC-3; PC-3, 12.5 µM",70.2%
same,Average of Relative viability of cells (%),"prostatic - PC-3; PC-3, 25 µM",57.4%
same,Average of Relative viability of cells (%),"prostatic - PC-3; PC-3, 50 µM",46.7%
same,Average of Relative viability of cells (%),"prostatic - PC-3; PC-3, 100 µM",36.8%
same,IC50,prostatic - PC-3,43 ± 2.5 µM
same,Average of Relative viability of cells (%),"breast - MCF-7; MCF-7, 1.56 µM",100%
same,Average of Relative viability of cells (%),"breast - MCF-7; MCF-7, 3.125 µM",91.6%
same,Average of Relative viability of cells (%),"breast - MCF-7; MCF-7, 6.25 µM",72.7%
same,Average of Relative viability of cells (%),"breast - MCF-7; MCF-7, 12.5 µM",53.5%
same,Average of Relative viability of cells (%),"breast - MCF-7; MCF-7, 25 µM",37.2%
same,Average of Relative viability of cells (%),"breast - MCF-7; MCF-7, 50 µM",28.4%
same,Average of Relative viability of cells (%),"breast - MCF-7; MCF-7, 100 µM",22.3%
same,IC50,breast - MCF-7,18 ± 1.4 µM
same,Average of Relative viability of cells (%),"colon - HCT-116; HCT-116, 1.56 µM",100%
same,Average of Relative viability of cells (%),"colon - HCT-116; HCT-116, 3.125 µM",99.8%
same,Average of Relative viability of cells (%),"colon - HCT-116; HCT-116, 6.25 µM",87.4%
same,Average of Relative viability of cells (%),"colon - HCT-116; HCT-116, 12.5 µM",67.3%
same,Average of Relative viability of cells (%),"colon - HCT-116; HCT-116, 25 µM",54.1%
same,Average of Relative viability of cells (%),"colon - HCT-116; HCT-116, 50 µM",43.7%
same,Average of Relative viability of cells (%),"colon - HCT-116; HCT-116, 100 µM",28.4%
same,IC50,colon - HCT-116,35 ± 2.2 µM
same,Average of Relative viability of cells (%),"- MDAMB-231; MDAMB-231, 1.56 µM",100%
same,Average of Relative viability of cells (%),"- MDAMB-231; MDAMB-231, 3.125 µM",87.1%
same,Average of Relative viability of cells (%),"- MDAMB-231; MDAMB-231, 6.25 µM",68.5%
same,Average of Relative viability of cells (%),"- MDAMB-231; MDAMB-231, 12.5 µM",55.2%
same,Average of Relative viability of cells (%),"- MDAMB-231; MDAMB-231, 25 µM",43.7%
same,Average of Relative viability of cells (%),"- MDAMB-231; MDAMB-231, 50 µM",32.3%
same,Average of Relative viability of cells (%),"- MDAMB-231; MDAMB-231, 100 µM",24.8%
same,IC50,pancreatic - MDAMB-231,20 ± 1.6 µM
same,Reduced potency compared to doxorubicin (GI50),[2],at least 2.5 fold
same,Reduced potency compared to sorafenib (GI50),[2],≥ 1.5 fold
same,IC50,[2],29 µM
same,Tub. enzyme inhibition assay %inhibition,tubulin; conc 0.01 (unit not given),5.97%
same,Tub. enzyme inhibition assay K. Activity,tubulin; conc 0.01 (unit not given),112.84
same,Tub. enzyme inhibition assay %inhibition,tubulin; conc 0.1 (unit not given),16.8%
same,Tub. enzyme inhibition assay K. Activity,tubulin; conc 0.1 (unit not given),99.836
same,Tub. enzyme inhibition assay %inhibition,tubulin; conc 1 (unit not given),30%
same,Tub. enzyme inhibition assay K. Activity,tubulin; conc 1 (unit not given),84.045
same,Tub. enzyme inhibition assay %inhibition,tubulin; conc 10 (unit not given),58%
same,Tub. enzyme inhibition assay K. Activity,tubulin; conc 10 (unit not given),50.371
same,Tub. enzyme inhibition assay %inhibition,tubulin; conc 100 (unit not given),81.2%
same,Tub. enzyme inhibition assay K. Activity,tubulin; conc 100 (unit not given),22.611
same,IC50,tubulin,7.92 ± 0.29 µM
same,Tub. (IC50) IC50±SD,"tubulin; supplement raw data, lab codes",4.039 ± 0.15 µg/mL
"Cc1nc(SCC(=O)Nc2nccs2)sc1C(=O)/C=C/c1ccc(Cl)cc1 [Compound 13b, (E)-2-((5-(3-(4-chlorophenyl)acryloyl)-4-methylthiazol-2-yl)thio)-N-(thiazol-2-yl)acetamide]","viability at 96 h, 50 µM",[1],87%
same,Average of Relative viability of cells (%),"prostatic - PC-3; PC-3, 1.56 µM",100%
same,Average of Relative viability of cells (%),"prostatic - PC-3; PC-3, 3.125 µM",86.4%
same,Average of Relative viability of cells (%),"prostatic - PC-3; PC-3, 6.25 µM",69.2%
same,Average of Relative viability of cells (%),"prostatic - PC-3; PC-3, 12.5 µM",45.8%
same,Average of Relative viability of cells (%),"prostatic - PC-3; PC-3, 25 µM",33.7%
same,Average of Relative viability of cells (%),"prostatic - PC-3; PC-3, 50 µM",25.3%
same,Average of Relative viability of cells (%),"prostatic - PC-3; PC-3, 100 µM",17.1%
same,IC50,prostatic - PC-3,14 ± 1.2 µM
same,Average of Relative viability of cells (%),"breast - MCF-7; MCF-7, 1.56 µM",97.8%
same,Average of Relative viability of cells (%),"breast - MCF-7; MCF-7, 3.125 µM",83.5%
same,Average of Relative viability of cells (%),"breast - MCF-7; MCF-7, 6.25 µM",57.1%
same,Average of Relative viability of cells (%),"breast - MCF-7; MCF-7, 12.5 µM",39.3%
same,Average of Relative viability of cells (%),"breast - MCF-7; MCF-7, 25 µM",22.6%
same,Average of Relative viability of cells (%),"breast - MCF-7; MCF-7, 50 µM",14.7%
same,Average of Relative viability of cells (%),"breast - MCF-7; MCF-7, 100 µM",8.2%
same,IC50,breast - MCF-7,9 ± 0.7 µM
same,Average of Relative viability of cells (%),"colon - HCT-116; HCT-116, 1.56 µM",100%
same,Average of Relative viability of cells (%),"colon - HCT-116; HCT-116, 3.125 µM",92.7%
same,Average of Relative viability of cells (%),"colon - HCT-116; HCT-116, 6.25 µM",73.3%
same,Average of Relative viability of cells (%),"colon - HCT-116; HCT-116, 12.5 µM",53.2%
same,Average of Relative viability of cells (%),"colon - HCT-116; HCT-116, 25 µM",39.5%
same,Average of Relative viability of cells (%),"colon - HCT-116; HCT-116, 50 µM",27.4%
same,Average of Relative viability of cells (%),"colon - HCT-116; HCT-116, 100 µM",14.3%
same,IC50,colon - HCT-116,17 ± 1.4 µM
same,Average of Relative viability of cells (%),"- MDAMB-231; MDAMB-231, 1.56 µM",91.7%
same,Average of Relative viability of cells (%),"- MDAMB-231; MDAMB-231, 3.125 µM",68.9%
same,Average of Relative viability of cells (%),"- MDAMB-231; MDAMB-231, 6.25 µM",60.5%
same,Average of Relative viability of cells (%),"- MDAMB-231; MDAMB-231, 12.5 µM",34.6%
same,Average of Relative viability of cells (%),"- MDAMB-231; MDAMB-231, 25 µM",26.3%
same,Average of Relative viability of cells (%),"- MDAMB-231; MDAMB-231, 50 µM",17.4%
same,Average of Relative viability of cells (%),"- MDAMB-231; MDAMB-231, 100 µM",9.2%
same,IC50,pancreatic - MDAMB-231,8 ± 0.7 µM
same,Reduced potency compared to doxorubicin (GI50),[2],at least 2.5 fold
same,Reduced potency compared to sorafenib (GI50),[2],≥ 1.5 fold
same,IC50,[2],12 µM
same,Tub %inh,tubulin; conc 0.1 (unit not given),15.2%
same,Tub K.Activity,tubulin; conc 0.1 (unit not given),101.7
same,Tub %inh,tubulin; conc 1 (unit not given),32.3%
same,Tub K.Activity,tubulin; conc 1 (unit not given),81.254
same,Tub %inh,tubulin; conc 10 (unit not given),54.2%
same,Tub K.Activity,tubulin; conc 10 (unit not given),54.918
same,Tub %inh,tubulin; conc 50 (unit not given),76.9%
same,Tub K.Activity,tubulin; conc 50 (unit not given),27.751
same,Tub %inh,tubulin; conc 100 (unit not given),92.3%
same,Tub K.Activity,tubulin; conc 100 (unit not given),9.196
same,IC50,tubulin,3.73 ± 0.11 µM
